A short description of series [1]: Assay (IX) pK, T½ in mini-pig. The format is in vivo, Göttingen mini-pigs. The conditions noted are these: i.v. The procedure:
Assay (IX)—pK—Determination of T½ in Mini-Pig
Pharmacokinetic (PK) studies in Göttingen mini-pigs were conducted in order to determine the T½ of the mimylin compound according to the Examples as indicated after i.v. administration.
T½ values of the amylin analogues of the invention is determined by pharmacokinetic studies in female Göttingen mini-pigs from Ellegaard Göttingen Minipigs ApS and the principles of laboratory animal care are followed.
An acclimatisation period of approximately 6-10 days was allowed before the animals entered the study. At start of the acclimatisation period the mini-pigs were about 5 to 12 months old and in the weight range of 15-35 kg. The mini-pigs had two central venous catheters inserted which were used for blood sampling.
The studies were conducted in an animal room which was illuminated to give a cycle of approximately 12 hours light and 12 hours darkness. The animals were housed individually. The animals had free access to domestic quality drinking water during the study, and no food restrictions applied for PK studies. The animals were weighed on arrival and on the days of dosing.
In the present studies the test substances were administered intravenously in approximately 5 nmol/kg dose. The animals received a single intravenous injection in one central venous catheter and blood sampling was performed from the other catheter, where possible. Each test substance was given to typically three but in some cases two or four animals.
A full plasma concentration-time profile, employing 12-16 sampling points, was obtained from each animal. In example blood samples were collected according to the following schedule:
After Intravenous Administration:
Pre-dose (0), 0.5, 1, 2, 4, 6, 8, 12, 24, 48, 72, 96, 120, 168 and 240 hours after injection. In some cases also additional blood samples up to 288 hours post injection were taken.
At each sampling time, 0.5 to 2 ml of blood was drawn from each animal. The blood samples were taken via the central venous catheter.
The 0.8 mL blood samples were collected into EDTA test tubes (8 mM EDTA). Blood samples were kept on ice for max 20 min. before centrifugation. Plasma was separated using centrifugation (i.e. at 4° C., 10 min., 2000G) and was immediately transferred to Micronic tubes on dry ice. Approximately 200 μl plasma was transferred to each Micronic tube. The plasma was stored at −20° C. until assayed. The plasma samples were assayed for the content of compound using LCMS.
The plasma concentration-time profiles were analysed by a non-compartmental pharmacokinetic analysis (NCA) using Phoenix WinNonlin 6.3 (Pharsight Inc., Mountain View, Calif., USA). NCA was performed using the individual plasma concentration-time profiles from each animal. T½ is the terminal half-life=In2/λz and was determined from λz, the first order rate constant associated with the terminal (log-linear) portion of the curve, estimated by linear regression of time vs. log concentration.
MS-Method for Amylin and Mimylin Quantification
40 μl plasma is diluted with 120 μl 66.67% EtOH+1% HCOOH and mixed. Centrifuged for 20 min. at 13000 rpm, 4° C. The supernatant is analyzed by an LC-MS method on a Sciex API 3000 and quantitated with a standard made up in plasma

Series [2] in a line: Assay (XV) subcutaneous PK in LYD-pigs, co-formulated or co-dosed with liraglutide. The conditions noted are these: for Cmax/D / T½ (hous): LYD-pigs s.c. The format is in vivo. The procedure: The studies were performed in female LYD pigs of SPF origin delivered from Lars Jonson, Hillerødvej 70, Lynge.
Before the animals arrived, the animal rooms and pens were cleaned and disinfected with Virkon S. During the study, the animal rooms were cleaned and washed regularly.
The pigs were group housed during the acclimatisation period. The pigs were fitted with a central venous catheter while under anaesthesia and after the single housed after catheterization in pens ≧3.1 m^2 with straw as bedding. The temperature in the rooms was set at 20−23° C. and the relative humidity to 30-70%. The rooms were illuminated to give a cycle of 12 hours light and 12 hours darkness. Light was on from 07.00 to 19.00 h.
The formulations was prepared similarly and filled in cartridges in all cases.
The animals were dosed subcutaneously as follows.
The s.c. dosing was performed in 4 mm depth, in a site of injection which was secured on beforehand by ultrasound to avoid muscular tissue or heavy vascularization. Dosing was made using NovoPen®4 and needle Novofine 28 G and a needle stopper to ensure 4 mm depth of injection. The needle was kept in the subcutis for 10 seconds after the injection to secure deposition of compound. […] The co-formulation was administered as one injection. Study was performed as a cross over study with adequate wash out between dosings.
Blood was sampled at predefined time points for up till 15 days post dosing to adequately cover the full plasma concentration-time profile of the mimylin derivative. Blood samples were drawn from a central venous catheter to jugularis made through the catheter which was afterwards flushed with 10 ml 0.9% NaCl.
For each blood sampling time point approximately 0.8 mL of whole blood was collected in a 1.5 mL EDTA coated tube, and the tube was gently turned to allowing mixing of the sample with the anticoagulant. Blood samples (for example 0.8 mL) were collected in EDTA buffer (8 mM) and then centrifuged at 4° C. and 2000 G for 10 minutes. Plasma was pipetted into Micronic tubes on dry ice, and kept at −20° C. until analysis.
Individual plasma concentration-time profiles were analysed by a non-compartmental model in Phoenix WinNonlin version 6.3 (Pharsight Inc., Mountain View, Calif., USA).
The area under the plasma concentration versus time curve (AUC, [time×concentration]) was calculated (by the Pharsight programme) after subcutaneous administration, typically until 240-288 hours post dosing, or until last measured concentration. The AUC was calculated and given as AUCinf-pred and dose normalized.
Results of co-formulation studies in LYD-pigs are summarized below

Series [3] is described as follows: Assay (IV) determination of solubility. The format is physicochemical. The protocol:
Assay (IV)—Determination of Solubility
The mimylin peptide was dissolved in water at ˜500 nmol/ml and mixed 1:1 with a series of buffers (100 mM glycylglycine pH 3.0, 100 mM glycylglycine pH 4.0, 100 mM glycylglycine pH 5.0, 100 mM bistrispropane pH 6.0, 100 mM bistrispropane pH 6.5, 100 mM bistrispropane pH 7.0, 100 mM bistrispropane pH 7.5, 100 mM bistrispropane pH 8.0).

Setting [4] is: Co-formulation liraglutide + Ex #46.

Molecules are shown by their SMILES. Numbered stars: 1 amine (or outer) side, 2 acyl side, 3 side chain; on linkers, the order of the positions; unused ones are H or OH. Peptide text beside a SMILES is read from it. * marks the point of attachment. C18 diacid = O=C(O)CCCCCCCCCCCCCCCCC(=O)*; γGlu = O=C(O)[C@H](CCC(=O)[*:2])N[*:1]

On to `CC(C)C[C@H](NC(=O)[C@H](C)NC(=O)[C@H](C)NC(=O)[C@@H](NC(=O)[C@H](CO)NC(=O)[C@H](CC(C)C)NC(=O)[C@H](CCC(=O)O)NC(=O)[C@H](CO)NC(=O)[C@H](C)NC(=O)CC[C@H](NC(=O)CCCCCCCCCCCCCCCCC(=O)O)C(=O)O)[C@@H](C)O)C(=O)NCC(=O)N[C@@H](CCCNC(=N)N)C(=O)N[C@@H](CC(C)C)C(=O)N[C@@H](CO)C(=O)N[C@@H](C)C(=O)N[C@@H](CCC(=O)O)C(=O)N[C@@H](CC(C)C)C(=O)N[C@@H](Cc1cnc[nH]1)C(=O)N[C@@H](CCC(=O)O)C(=O)N[C@@H](CC(C)C)C(=O)N[C@@H](C)C(=O)N[C@H](C(=O)N[C@@H](CC(C)C)C(=O)N1CCC[C@H]1C(=O)N[C@@H](CCCNC(=N)N)C(=O)N[C@H](C(=O)N[C@@H](CCC(=O)O)C(=O)N[C@H](C(=O)NCC(=O)N[C@@H](CO)C(=O)NCC(=O)N[C@@H](CO)C(=O)N1CCC[C@H]1C(N)=O)[C@@H](C)O)[C@@H](C)O)[C@@H](C)O` [Ex. #46, [N-terminal(C18 diacid-gGlu), des1, 30S, 31G]mimylin] ({C18 diacid-γGlu}-ASELSTAALGRLSAELHELATLPRTETGSGSP-NH2), for which the “PK mini pig iv T½” value in series [1] is listed as 118 h. Further, the figures for the “Cmax/D” value in series [2] (Co-dosing liraglutide + Ex #46) and in series [2] (setting [4]) were 5.2 kg/L and 5.7 kg/L, respectively. For the same molecule, the “T½ (hous)” value is given as 129 hous in series [2] (Co-dosing liraglutide + Ex #46) and 133 hous in series [2] (setting [4]). In addition, the “effect on PK profile of the co-formulated peptide” value in series [2] (administered as co-formulations to LYD pigs) is recorded as “do not affect the PK profile of liraglutide”. Besides, the Solubility result in series [3] (pH 3.0), in series [3] (pH 4.0), in series [3] (pH 5.0), in series [3] (pH 6.0), in series [3] (pH 6.5) and in series [3] (pH 7.0) was “≧200 μM” throughout. Besides, the Solubility result in series [3] (pH 7.5) and in series [3] (pH 8.0) was “≧200 μM” in each case.

Values taken from patent US9593149B2, “Amylin and calcitonin receptor agonist” (Novo Nordisk A/S, priority 2014, dated 2017).
